Measurements: patent US8354429B2, “Inhibitors of human immunodeficiency virus replication” (priority 2007, dated 2013)

Assays:
Format in all cases: cell-based
[1] = test system: HIV-1 2.12 virus with Thr124/Thr125 variant integrase (NL4.3 integrase); assay: C8166 HIV-1 luciferase assay (EC50), T124/T125 integrase variant virus; conditions: Human immunodeficiency virus 1, C8166, read-out: EC50 (nM) T124/T125
Description: (§1) C8166 cells are derived from a human T-lymphotrophic virus type 1 immortalized but nonexpressing line of cord blood lymphocytes (NIH AIDS reagent 404) and are highly permissive to HIV-1 infection. The pGL3 Basic LTR/TAR plasmid is made by introducing the HIV-1 HxB2 LTR sequence from nucleotide −138 to +80 (Sca1-HindIII) upstream of the luciferase gene in the pGL3 Basic Vector (a promoterless luciferase expression vector from Promega catalogue #E1751) with the gene for blasticidine resistance cloned in. The reporter cells are made by electroporating C8166 cells with pGL3 Basic LTR/TAR and selecting positive clones with blasticidine. Clone C8166-LTRluc #A8-F5-G7 was selected by 3 consecutive rounds of limiting dilution under blasticidine selection. Cultures are maintained in complete media (consisting of: Roswell Park Memorial Institute medium (RPMI) 1640+10% FBS+10^−5 M β-mercaptoethanol+10 μg/mL gentamycin) with 5 μg/mL blasticidine, however, blasticidine selection is removed from the cells before performing the viral replication assay.
(§2) Serial dilutions of HIV-1 inhibitor compounds are prepared in complete media from 10 mM DMSO stock solutions. Eleven serial dilutions of 2.5× are made at 8× desired final concentration in a 1 ml deep well titer plate (96 wells). The 12th well contains complete media with no inhibitor and serves as the positive control. All samples contain the same concentration of DMSO 0.1% DMSO). A 25 μL aliquot of inhibitor is added, to triplicate wells, of a 96 well tissue culture treated clear view black microtiter plate (Corning Costar catalogue #3904). The total volume per well is 200 μL of media containing cells and inhibitor. The last row is reserved for uninfected C8166 LTRluc cells to serve as the background blank control and the first row is media alone.
(§3) C8166 LTRluc cells are counted and placed in a minimal volume of complete RPMI 1640 in a tissue culture flask (ex. 30×10^6 cells in 10 mL media/25 cm^2 flask). Cells are infected with HIV-1 or virus with variant integrase generated as described below at a […] (moi) of 0.005. Cells are incubated for 1.5 h at 37° C. on a rotating rack in a 5% CO2 incubator and re-suspended in complete RPMI to give a final concentration of 25,000-cells/175 μL. 175 μL of cell mix is added to wells of a 96 well microtiter plate containing 25 μL 8× inhibitors. 25,000 uninfected C8166-LTRluc cells/well in 200 μL complete RPMI are added to the last row for background control. Cells are incubated at 37° C. in 5% CO2 incubator for 3 days.
(§4) 50 μL Steady Glo (luciferase substrate T1/2=5 hours Promega catalogue #E2520) is added to each well of the 96 well plate. The relative light units (RLU) of luciferase is determined using the LUMIstar Galaxy luminometer (BMG LabTechnologies). Plates are read from the bottom for 2 seconds per well with a gain of 240.
(§5) The level of inhibition (% inhibition) of each well containing inhibitor is calculated as follows: […]
(§6) The calculated % inhibition values are used to determine EC50, slope factor (n) and maximum inhibition (Imax) by the non-linear regression routine NLIN procedure of SAS using the following equation: […]
(§7) The 2.12 virus with NL4.3 strain of HIV-1 integrase (SEQ ID NO: 1) is used for the Thr124/Thr125 variant integrase residues and HXB2 integrase is introduced into the 2.12 virus for the Ala124/Thr125 variant integrase residues. The remaining variants viruses are generated by site directed mutagenesis of NL4.3 integrase to introduce the Ala124/Ala125, Thr124/Ala125, Asn124/Thr125, or Asn124/Ala125 variants in the 2.12 virus. Molecular biology and generation of virus are performed in a similar manner to Doyon et al. J. Virol. 70(6):3763-9 (1996). Briefly, site directed mutagenesis is used to introduce silent mutations in the integrase gene of the 2.12 virus. […]

[2] = test system: HIV-1 2.12 virus with Thr124/Ala125 variant integrase; assay: C8166 HIV-1 luciferase assay (EC50), T124/A125 integrase variant virus; conditions: Human immunodeficiency virus 1, C8166, read-out: EC50 (nM) T124/A125
Description: as §1, §2, §3, §4, §5, §6, §7

[3] = test system: HIV-1 2.12 virus with Ala124/Thr125 variant integrase (HXB2 integrase); assay: C8166 HIV-1 luciferase assay (EC50), A124/T125 integrase variant virus; conditions: Human immunodeficiency virus 1, HXB2, C8166, read-out: EC50 (nM) A124/T125
Description: as §1, §2, §3, §4, §5, §6, §7

[4] = test system: HIV-1 2.12 virus with Ala124/Ala125 variant integrase; assay: C8166 HIV-1 luciferase assay (EC50), A124/A125 integrase variant virus; conditions: Human immunodeficiency virus 1, C8166, read-out: EC50 (nM) A124/A125
Description: as §1, §2, §3, §4, §5, §6, §7

Compound	EC50 [1] [nM]	EC50 [2] [nM]	EC50 [3] [nM]	EC50 [4] [nM]
Cc1nc2ccccc2c(-c2ccc(CF)cc2F)c1[C@H](OC(C)(C)C)C(=O)O [Compound 1018]	55	93	35	110
CCC(C)(C)Oc1c(C(C(=O)O)c2ccc3c4c(ccnc24)CCO3)c(C)nc2ccccc12 (stereo not drawn) [Compound 2002]	19	24	9.9	13
Cc1nc2ccccc2c(-c2ccc(Cl)cc2F)c1[C@H](OC(C)(C)C)C(=O)O [Compound 1010]	41	76	12	49
Cc1nc2ccccc2c(-c2ccc3c(c2)CCC3)c1[C@H](OC(C)(C)C)C(=O)O [Compound 1023]	29	31	12	37
Cc1nc2ccccc2c(-c2ccc3c(c2)C(C)CCO3)c1[C@H](OC(C)(C)C)C(=O)O (stereo partly drawn) [Compound 1052]	120	59	28	64
Cc1ccc(-c2c([C@H](OC(C)(C)C)C(=O)O)c(C)nc3ccccc23)cc1C [Compound 1008]	59	49	11	55
Cc1nc2ccccc2c(-c2ccc3ncsc3c2)c1[C@H](OC(C)(C)C)C(=O)O [Compound 1136]	200	140	91	170
Cc1nc2ccccc2c(-c2ccc3c(c2)CCO3)c1[C@H](OC(C)(C)C)C(=O)O [Compound 1014]	87	76	19	68
Cc1nc2ccccc2c(OC(C)C)c1C(C(=O)O)c1ccc2c3c(ccnc13)CCO2 (stereo not drawn) [Compound 2001]	110	120	71	67
